Consider 19 compounds from US12577206B2 (BRISTOL-MYERS SQUIBB COMPANY, priority 2020, dated 2026).

In one experiment the target is T1, human FPR1 (Homo sapiens, UniProt P21462).
T1 sequence (P21462 1-350): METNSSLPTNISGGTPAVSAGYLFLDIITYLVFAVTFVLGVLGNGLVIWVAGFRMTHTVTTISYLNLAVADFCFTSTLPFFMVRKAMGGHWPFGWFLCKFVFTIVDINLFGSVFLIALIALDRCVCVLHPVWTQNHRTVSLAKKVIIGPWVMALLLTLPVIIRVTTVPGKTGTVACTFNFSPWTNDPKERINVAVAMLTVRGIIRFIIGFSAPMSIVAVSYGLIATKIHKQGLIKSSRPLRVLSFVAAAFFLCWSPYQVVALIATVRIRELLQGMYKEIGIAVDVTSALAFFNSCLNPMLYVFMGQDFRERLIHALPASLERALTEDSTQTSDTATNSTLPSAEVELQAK
In words: FPR1 cyclic adenosine monophosphate (cAMP) assay. It is filed as cell-based. To be noted: CHO cells overexpressing human FPR1; forskolin 10 μM; inhibition of cAMP production; HTRF; read-out: hFPR1 cAMP2 EC50. The method in brief: (§1)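 CHO cells overexpressing human FPR1 (4,000/well) or FPR2 (2,000/well) were incubated 30 min at room temperature with compound (0.020 nM to 100 μM, 1% DMSO), IBMX 200 μM, and forskolin at 10 μM (FPR1) or 5 μM (FPR2), all final. HTRF cAMP read-out; inhibition fitted by 4-parameter logistic equation.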
For orientation: Cyclic AMP is a second messenger, typically raised through Gs and lowered through Gi signalling.

The next experiment addresses T2, human FPR2 (Homo sapiens, UniProt P25090).
T2 sequence (P25090 1-351): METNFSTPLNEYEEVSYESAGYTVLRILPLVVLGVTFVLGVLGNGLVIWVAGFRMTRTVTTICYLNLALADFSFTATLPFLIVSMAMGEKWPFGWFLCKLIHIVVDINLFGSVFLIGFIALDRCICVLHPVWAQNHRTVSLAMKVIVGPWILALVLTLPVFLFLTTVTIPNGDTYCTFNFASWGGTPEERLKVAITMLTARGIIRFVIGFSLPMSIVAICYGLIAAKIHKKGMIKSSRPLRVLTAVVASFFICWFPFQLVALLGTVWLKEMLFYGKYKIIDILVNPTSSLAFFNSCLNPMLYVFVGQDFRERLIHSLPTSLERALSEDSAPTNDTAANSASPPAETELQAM
In words: FPR2 cyclic adenosine monophosphate (cAMP) assay. The class given is cell-based. Conditions: CHO cells overexpressing human FPR2; forskolin 5 μM; inhibition of cAMP production; HTRF; read-out: hFPR2 cAMP2 EC50. The method in brief:
as §1

In general, EC50 refers to the concentration needed to bring the measured effect to its halfway point.

Take `CCc1ccc(N2CCN(C)CC2)nc1-n1c(=O)c(NC(=O)c2ccc(OC(F)F)cc2)c(-c2c(F)cc(OC)cc2F)n1C` [Example 244, N-[5-(2,6-difluoro-4-methoxyphenyl)-2-[3-ethyl-6-(4-methylpiperazin-1-yl)pyridin-2-yl]-1-methyl-3-oxo-2,3-dihydro-1H-pyrazol-4-yl]-4-(difluoromethoxy)benzamide]: the EC50 on human FPR1 was more than 10000 nM; on human FPR2, 35 nM.
As for `COc1ccc(-c2c(NC(=O)c3ccc(OC(F)F)cc3)c(=O)n(-c3ncccc3Cl)n2C)cc1` [Example 245, N-[2-(3-chloropyridin-2-yl)-5-(4-methoxyphenyl)-1-methyl-3-oxo-2,3-dihydro-1H-pyrazol-4-yl]-4-(difluoromethoxy)benzamide], the figures for the EC50 at human FPR1 and at human FPR2 were 1200 nM and 20 nM, respectively.
In the same order, the values of `COc1ccc(-c2c(NC(=O)c3ccc(OC(F)F)cc3)c(=O)n(-c3ncccc3C(F)(F)F)n2C)cc1C` [Example 246, 4-(difluoromethoxy)-N-(5-(4-methoxy-3-methylphenyl)-1-methyl-3-oxo-2-(3-(trifluoromethyl)pyridin-2-yl)-2,3-dihydro-1H-pyrazol-4-yl)benzamide] are more than 10000 nM and 315 nM.
With `COc1cc(F)c(-c2c(NC(=O)c3ccc(OC(F)F)cc3)c(=O)n(-c3nc(N4CCN(S(C)(=O)=O)CC4)ccc3Cl)n2C)c(F)c1` [Example 247, N-{2-[3-chloro-6-(4-methanesulfonylpiperazin-1-yl)pyridin-2-yl]-5-(2,6-difluoro-4-methoxyphenyl)-1-methyl-3-oxo-2,3-dihydro-1H-pyrazol-4-yl}-4-(difluoromethoxy)benzamide], the figures for the EC50 at human FPR1 and at human FPR2 were 630 nM and 5 nM, respectively.
In the same order, the values of `CCOc1ccc(Cl)nc1-n1c(=O)c(NC(=O)c2ccc(OC(F)F)cc2)c(-c2c(F)cc(OC)cc2F)n1C` [Example 248, N-[2-(6-chloro-3-ethoxypyridin-2-yl)-5-(2,6-difluoro-4-methoxyphenyl)-1-methyl-3-oxo-2,3-dihydro-1H-pyrazol-4-yl]-4-(difluoromethoxy)benzamide] are more than 10000 nM and 8 nM.
For `Cn1c(-c2ccc(Cl)cc2)c(NC(=O)c2ccc(OC(F)F)cc2)c(=O)n1-c1ncccc1C(F)(F)F` [Example 249, N-[5-(4-chlorophenyl)-1-methyl-3-oxo-2-[3-(trifluoromethyl)pyridin-2-yl]-2,3-dihydro-1H-pyrazol-4-yl]-4-(difluoromethoxy)benzamide] the same measures were 510 nM and 38 nM.
Regarding `COc1ccc(-c2c(NC(=O)c3ccc(OC(F)F)cc3)c(=O)n(-c3ncccc3C(F)(F)F)n2C)cc1` [Example 250, 4-(difluoromethoxy)-N-[5-(4-methoxyphenyl)-1-methyl-3-oxo-2-[3-(trifluoromethyl)pyridin-2-yl]-2,3-dihydro-1H-pyrazol-4-yl]benzamide], the EC50 on human FPR1 stood at 970 nM; at human FPR2, 13 nM.
For `COc1cc(F)c(-c2c(NC(=O)c3ccc(OC(F)F)cc3)c(=O)n(-c3nc(NC4CC4)ccc3C(F)(F)F)n2C)c(F)c1` [Example 251, N-{2-[6-(cyclopropylamino)-3-(trifluoromethyl)pyridin-2-yl]-5-(2,6-difluoro-4-methoxyphenyl)-1-methyl-3-oxo-2,3-dihydro-1H-pyrazol-4-yl}-4-(difluoromethoxy)benzamide] the same measures were more than 10000 nM and 2 nM.
For `COc1cc(F)c(-c2c(NC(=O)c3ccc(OC(F)F)cc3)c(=O)n(-c3nc(NCC(=O)N(C)C)ccc3C(F)(F)F)n2C)c(F)c1` [Example 252, N-[5-(2,6-difluoro-4-methoxyphenyl)-2-(6-{[(dimethylcarbamoyl)methyl]-amino}-3-(trifluoromethyl)pyridin-2-yl)-1-methyl-3-oxo-2,3-dihydro-1H-pyrazol-4-yl]-4-(difluoromethoxy)benzamide] the same measures were more than 10000 nM and 12 nM.
With `COc1cc(F)c(-c2c(NC(=O)c3ccc(OC(F)F)cc3)c(=O)n(-c3nc(NC4COC4)ccc3C(F)(F)F)n2C)c(F)c1` [Example 253, N-[5-(2,6-difluoro-4-methoxyphenyl)-1-methyl-2-{6-[(oxetan-3-yl)amino]-3-(trifluoromethyl)pyridin-2-yl}-3-oxo-2,3-dihydro-1H-pyrazol-4-yl]-4-(difluoromethoxy)benzamide], the EC50 at human FPR1 was more than 10000 nM; at human FPR2, 5 nM.
In the case of `COc1cc(F)c(-c2c(NC(=O)c3ccc(OC(F)F)cc3)c(=O)n(-c3nc(N[C@@H]4CCOC4)ccc3C(F)(F)F)n2C)c(F)c1` [Example 254, N-[5-(2,6-difluoro-4-methoxyphenyl)-1-methyl-3-oxo-2-(6-{[(3R)-oxolan-3-yl]amino}-3-(trifluoromethyl)pyridin-2-yl)-2,3-dihydro-1H-pyrazol-4-yl]-4-(difluoromethoxy)benzamide], the EC50 was more than 10000 nM at human FPR1 and 4 nM on human FPR2.
For `COc1cc(F)c(-c2c(NC(=O)c3ccc(OC(F)F)cc3)c(=O)n(-c3nc(N[C@H]4CCOC4)ccc3C(F)(F)F)n2C)c(F)c1` [Example 255] the same measures were more than 10000 nM and 2 nM.
Regarding `COc1cc(F)c(-c2c(NC(=O)c3ccc(OC(F)F)cc3)c(=O)n(-c3nc(NC(C)(C)CO)ccc3C(F)(F)F)n2C)c(F)c1` [Example 256, N-[5-(2,6-difluoro-4-methoxyphenyl)-2-{6-[(1-hydroxy-2-methylpropan-2-yl)amino]-3-(trifluoromethyl)pyridin-2-yl}-1-methyl-3-oxo-2,3-dihydro-1H-pyrazol-4-yl]-4-(difluoromethoxy)benzamide], the figures for the EC50 at human FPR1 and on human FPR2 were more than 10000 nM and 3 nM, respectively.
On to `COc1cc(F)c(-c2c(NC(=O)c3ccc(OC(F)F)cc3)c(=O)n(-c3nc(OC)ccc3C(F)(F)F)n2C)c(F)c1` [Example 257, N-[5-(2,6-difluoro-4-methoxyphenyl)-2-[6-methoxy-3-(trifluoromethyl)pyridin-2-yl]-1-methyl-3-oxo-2,3-dihydro-1H-pyrazol-4-yl]-4-(difluoromethoxy)benzamide], for which the EC50 is more than 10000 nM on human FPR1 and 10 nM on human FPR2.
For `COc1cc(F)c(-c2c(NC(=O)c3ccc(OC(F)F)cc3)c(=O)n(-c3nc(N4CCC[C@H]4CO)ccc3C(F)(F)F)n2C)c(F)c1` [Example 258, N-[5-(2,6-difluoro-4-methoxyphenyl)-2-{6-[(2S)-2-(hydroxymethyl)pyrrolidin-1-yl]-3-(trifluoromethyl)pyridin-2-yl}-1-methyl-3-oxo-2,3-dihydro-1H-pyrazol-4-yl]-4-(difluoromethoxy)benzamide] the same measures were more than 5000 nM and 9 nM.
For `COC(=O)[C@@H]1CCCN1c1ccc(C(F)(F)F)c(-n2c(=O)c(NC(=O)c3ccc(OC(F)F)cc3)c(-c3c(F)cc(OC)cc3F)n2C)n1` [Example 259, methyl (2S)-1-{6-[3-(2,6-difluoro-4-methoxyphenyl)-4-[4-(difluoromethoxy)benzamido]-2-methyl-5-oxo-2,5-dihydro-1H-pyrazol-1-yl]-5-(trifluoromethyl)pyridin-2-yl}pyrrolidine-2-carboxylate] the same measures were more than 10000 nM and 10 nM.
For `CNC(=O)CN(C)c1ccc(C(F)(F)F)c(-n2c(=O)c(NC(=O)c3ccc(OC(F)F)cc3)c(-c3c(F)cc(OC)cc3F)n2C)n1` [Example 260, N-[5-(2,6-difluoro-4-methoxyphenyl)-1-methyl-2-(6-{methyl[(methylcarbamoyl)methyl]amino}-3-(trifluoromethyl)pyridin-2-yl)-3-oxo-2,3-dihydro-1H-pyrazol-4-yl]-4-(difluoromethoxy)benzamide] the same measures were more than 10000 nM and 10 nM.
`COc1cc(F)c(-c2c(NC(=O)c3ccc(OC(F)F)cc3)c(=O)n(-c3nc(N(C)CC(C)(C)O)ccc3C(F)(F)F)n2C)c(F)c1` [Example 261, N-[5-(2,6-difluoro-4-methoxyphenyl)-2-{6-[(2-hydroxy-2-methylpropyl)(methyl)amino]-3-(trifluoromethyl)pyridin-2-yl}-1-methyl-3-oxo-2,3-dihydro-1H-pyrazol-4-yl]-4-(difluoromethoxy)benzamide]: the EC50 was more than 5000 nM on human FPR1 and 2 nM on human FPR2.
For `COc1ccc(-c2c(NC(=O)c3ccc(OC(F)F)cc3)c(=O)n(-c3ncccc3Cl)n2C)c(F)c1` [Example 262, N-[2-(3-chloropyridin-2-yl)-5-(2-fluoro-4-methoxyphenyl)-1-methyl-3-oxo-2,3-dihydro-1H-pyrazol-4-yl]-4-(difluoromethoxy)benzamide] the same measures were 2000 nM and 25 nM.
